Experimental data published in US12678419B2, “Compounds” (Sitryx Therapeutics Limited, priority 2020, dated 2026).
Several values for one entry are separate records, joined by “and”; a condition that tells them apart may be missing. Equal values may be shown once.

Key:
mouse hepatocytes = experiment: Hepatocyte stability assay, mouse; assay type: in vitro ADME; conditions: 10 μM compound
Description: (§1) Defrosted cryo-preserved hepatocytes (viability >70%) were used to determine the metabolic stability of a compound via calculation of intrinsic clearance (Clint; a measure of the removal of a compound from the liver in the absence of blood flow and cell binding). Clearance data are particularly important for in vitro work as they can be used in combination with in vivo data to predict the half-life and oral bioavailability of a drug.
(§2) The metabolic stability in hepatocytes assay involves a time-dependent reaction using both positive and negative controls. The cells were pre-incubated at 37° C. and spiked with test compound (and positive control); samples were taken at pre-determined time intervals were analysed to monitor the change in concentration of the initial drug compound over 60 minutes. A buffer incubation reaction (with no hepatocytes present) acted as a negative control and two cocktail solutions, containing compounds with known high and low clearance values (verapamil/7-hydroxycoumarin and propranolol/diltiazem), acted as positive controls. • 1. The assay was run with a cell concentration of 0.5×10^6 cells/mL in Leibovitz buffer. • 2. All compounds and controls were run in duplicate. • 3. Compound concentration was 10 μM. • 4. All compounds and controls were incubated with both cells and buffer to show turnover was due to hepatic metabolism. • 5. All wells on the incubation plate had 326.7 μL of either cells or buffer added. • 6. Prior to assay, cell and buffer-only incubation plates were preincubated for 10 mins at 37° C. • 7. The assay was initiated by adding compounds, 3.3 μL of 1 mM in 10% DMSO-90% Buffer; final DMSO concentration was 0.1%. • 8. Samples were taken at regular timepoints (0, 5, 10, 20, 40, 60 min) until 60 mins. • 9. Sample volume was 40 μL and was added to 160 μL of crash solvent (acetonitrile with internal standard) and stored on ice. • 10. At the end of the assay, the crash plates were centrifuged at 3500 rpm for 20 mins at 4° C. • 11. 80 μL of clear supernatant was removed and mixed with 80 μL of deionised water before being analysed by LC-MS/MS.
(§3) Raw LC-MS/MS data was exported to, and analysed in, Microsoft Excel for determination of intrinsic clearance. The percentage remaining of a compound was monitored using the peak area of the initial concentration as 100%. Intrinsic clearance and half-life values were calculated using a graph of the natural log of percentage remaining versus the time of reaction in minutes. Half-life (min) and intrinsic clearance (Clint in μL min^−1 10^−6 cells) values were calculated using the gradient of the graph (the elimination rate constant, k) and Equations 1 and 2.

[1] = tested on: NRF2 (nuclear factor erythroid 2-related factor 2); experiment: NRF2 +/-GSH activation assay (DiscoverX PathHunter NRF2 translocation kit, U2OS cells); assay type: cell-based; conditions: for Emax (%) +GSH / Emax (%) −GSH: normalised to dimethyl fumarate high control
[2] = tested on: IL-1β cytokine output from THP-1s; experiment: THP-1 AlphaLISA IL-1β cytokine assay; assay type: cell-based; conditions: LPS then nigericin, Table 1
Description: (§4) The cytokine inhibition profiles of compounds of formula (I) were determined in a differentiated THP-1 cell assay. All assays were performed in RPMI-1640 growth medium (Gibco), supplemented with 10% fetal bovine serum (FBS; Gibco), 1% penicillin-streptomycin and 1% sodium pyruvate unless specified otherwise. The IL-1β and IL-6 cytokine inhibition assays were each run in a background of differentiated THP-1 cells as described below. All reagents described were from Sigma-Aldrich unless specified otherwise. Compounds were prepared as 10 mM DMSO stocks.
(§5) THP-1 cells were expanded as a suspension up to 80% confluence in appropriate growth medium. Cells were harvested, suspended, and treated with an appropriate concentration of phorbol 12-myristate 13-acetate (PMA) over a 72 hr period (37° C./5% CO2).
(§6) Following 72 hrs of THP-1 cell incubation, cellular medium was removed and replaced with fresh growth media containing 1% of FBS. Working concentrations of compounds were prepared separately in 10% FBS treated growth medium and pre-incubated with the cells for 30 minutes (37° C./5% CO2). Following the 30 minute compound pre-incubation, THP-1s were treated with an appropriate concentration of LPS and the THP-1s were subsequently incubated for a 24 hr period (37° C./5% CO2). An appropriate final concentration of Nigericin was then dispensed into the THP-1 plates and incubated for 1 hour (37° C./5% CO2) before THP-1 supernatants were harvested and collected in separate polypropylene 96-well holding plates.
(§7) Reagents from each of the IL-1β and IL-6 commercial kits (Perkin Elmer) were prepared and run according to the manufacturer's instructions. Subsequently, fluorescence signal detection in a microplate reader was measured (EnVision® Multilabel Reader, Perkin Elmer).
(§8) Percentage inhibition was calculated per cytokine by normalising the sample data to the high and low controls used within each plate (+/− LPS respectively). Percentage inhibition was then plotted against compound concentration and the 50% inhibitory concentration (IC50) was determined from the resultant concentration-response curve.

human hepatocytes = experiment: Hepatocyte stability assay, human; assay type: in vitro ADME; conditions: 10 μM compound
Description: as §1, §2, §3

[3] = Hepatocyte stability assay, human; assay type: in vitro ADME; conditions: human, cryopreserved hepatocytes, 10 μM compound, read-out: T½
Description: as §1, §2, §3

[4] = tested on: IL-6 cytokine output from THP-1s; experiment: THP-1 AlphaLISA IL-6 cytokine assay; assay type: cell-based; conditions: LPS then nigericin, Table 1
Description: as §4, §5, §6, §7, §8

[5] = Hepatocyte stability assay, mouse; assay type: in vitro ADME; conditions: mouse, cryopreserved hepatocytes, 10 μM compound, read-out: T½
Description: as §1, §2, §3

[6] = Homo sapiens, THP-1, differentiated THP-1 cells

Structure (SMILES)	Clint (μL min^−1 10^−6 cells) (mouse hepatocytes)	T½ (mouse hepatocytes)	EC50 ([1]; +GSH)	Emax (%) +GSH ([1]; +GSH)	EC50 ([1]; −GSH)	Emax (%) −GSH ([1]; −GSH)	IC50 [2, 6]	Clint (μL min^−1 10^−6 cells) (human hepatocytes)	half-life at 10 μM [3]	IC50 [4, 6]	half-life at 10 μM [5]	IC50 ([2]; differentiated THP-1 cells)	T½ (human hepatocytes)	IC50 ([4]; differentiated THP-1 cells)
C=C(CC(=O)OC1CCCc2c(Cl)cc(Cl)cc21)C(=O)OCC(=O)O (single isomer, unassigned; enantiomer 1) [Example 24, 2-((4-((5,7-dichloro-1,2,3,4-tetrahydronaphthalen-1-yl)oxy)-2-methylene-4-oxobutanoyl)oxy)acetic acid (Enantiomer 1)]	56 μL min^−1 10^−6 cells	34 min	5.7 µM	84%	6 µM	148%	3.3 µM	54 μL min^−1 10^−6 cells	32 min	4.1 µM	–	–	–	–
C=C(CC(=O)OC1CCc2ccc(OC(F)(F)F)cc21)C(=O)OCC(=O)O (stereo not drawn) [Example 18, 2-((2-methylene-4-oxo-4-((6-(trifluoromethoxy)-2,3-dihydro-1H-inden-1-yl)oxy)butanoyl)oxy)acetic acid]	146 μL min^−1 10^−6 cells	–	18.4 µM	105%	8.7 µM	121%	2.1 µM	–	–	–	10 min	–	–	–
C=C(CC(=O)OC1CCc2cc(C(F)(F)F)ccc21)C(=O)OCC(=O)O (single isomer, unassigned; enantiomer 2) [Example 29, 2-((2-methylene-4-oxo-4-((5-(trifluoromethyl)-2,3-dihydro-1H-inden-1-yl)oxy)butanoyl)oxy)acetic acid (Enantiomer 2)]	92 μL min^−1 10^−6 cells	17 min	18.7 µM and 25.9 µM	141% and 175%	5.9 µM and 11.5 µM	147% and 211%	–	10 μL min^−1 10^−6 cells	–	–	–	11.4 µM	152 min	5.8 µM
C=C(CC(=O)OC1CCc2c(Cl)cc(Cl)cc21)C(=O)OCC(=O)O (single isomer, unassigned; enantiomer 2) [Example 3, 2-((4-((4,6-dichloro-2,3-dihydro-1H-inden-1-yl)oxy)-2-methylene-4-oxobutanoyl)oxy)acetic acid (Enantiomer 2)]	>460 μL min^−1 10^−6 cells	<3 min	15.8 µM	211%	9.8 µM	229%	–	16 μL min^−1 10^−6 cells	–	–	–	5.6 µM	93 min	3.6 µM
C=C(CC(=O)OC1CCc2cc(Cl)cc(Cl)c2C1)C(=O)OCC(=O)O (single isomer, unassigned; enantiomer 1) [Example 10, 2-((4-((6,8-dichloro-1,2,3,4-tetrahydronaphthalen-2-yl)oxy)-2-methylene-4-oxobutanoyl)oxy)acetic acid (Enantiomer 1)]	225 μL min^−1 10^−6 cells	–	–	–	–	–	6.6 µM	18 μL min^−1 10^−6 cells	81 min	–	7 min	–	–	–
C=C(CC(=O)OC1CCc2c(Cl)cc(Cl)cc21)C(=O)OCC(=O)O (single isomer, unassigned; enantiomer 1) [Example 2, 2-((4-((4,6-dichloro-2,3-dihydro-1H-inden-1-yl)oxy)-2-methylene-4-oxobutanoyl)oxy)acetic acid (Enantiomer 1)]	51 μL min^−1 10^−6 cells	37 min	11.4 µM	166%	9 µM	196%	4 µM	13 μL min^−1 10^−6 cells	116 min	4.3 µM	–	–	–	–
C=C(CC(=O)OC1CCc2ccc(OC(F)(F)F)cc21)C(=O)OCC(=O)O (single isomer, unassigned; enantiomer 1) [Example 28, 2-((2-methylene-4-oxo-4-((6-(trifluoromethoxy)-2,3-dihydro-1H-inden-1-yl)oxy)butanoyl)oxy)acetic acid (Enantiomer 1)]	49 μL min^−1 10^−6 cells	32 min	22.5 µM	139%	8 µM	160%	11.7 µM	21 μL min^−1 10^−6 cells	75 min	–	–	–	–	7.6 µM
C=C(CC(=O)OC1CCc2cc(Cl)c(Cl)cc21)C(=O)OCC(=O)O (single isomer, unassigned; enantiomer 1) [Example 5, 2-((4-((5,6-dichloro-2,3-dihydro-1H-inden-1-yl)oxy)-2-methylene-4-oxobutanoyl)oxy)acetic acid (Enantiomer 1)]	431 μL min^−1 10^−6 cells	3 min	19.5 µM	246%	10.8 µM	280%	12.3 µM	11 μL min^−1 10^−6 cells	140 min	–	–	–	–	–
C=C(CC(=O)OC1CCc2c(Br)cc(F)cc21)C(=O)OCC(=O)O (single isomer, unassigned; enantiomer 1) [Example 15, 2-((4-((4-bromo-6-fluoro-2,3-dihydro-1H-inden-1-yl)oxy)-2-methylene-4-oxobutanoyl)oxy)acetic acid (Enantiomer 1)]	51 μL min^−1 10^−6 cells	24 min	–	–	–	–	2.4 µM	9 μL min^−1 10^−6 cells	165 min	–	–	–	–	–
C=C(CC(=O)OC1CCCc2c(Cl)cc(Cl)cc21)C(=O)OCC(=O)O (single isomer, unassigned; enantiomer 2) [Example 25, 2-((4-((5,7-dichloro-1,2,3,4-tetrahydronaphthalen-1-yl)oxy)-2-methylene-4-oxobutanoyl)oxy)acetic acid (Enantiomer 2)]	>460 μL min^−1 10^−6 cells	<3 min	10.6 µM	147%	6 µM	205%	–	29 μL min^−1 10^−6 cells	–	–	–	4.8 µM	58 min	6.2 µM
C=C(CC(=O)OC1CCc2c(Cl)cc(F)cc21)C(=O)OCC(=O)O (single isomer, unassigned; enantiomer 2) [Example 20, 2-((4-((4-chloro-6-fluoro-2,3-dihydro-1H-inden-1-yl)oxy)-2-methylene-4-oxobutanoyl)oxy)acetic acid (Enantiomer 2)]	>460 μL min^−1 10^−6 cells	<3 min	31.8 µM	155%	12.9 µM	234%	–	11 μL min^−1 10^−6 cells	–	3.9 µM	–	1.4 µM	125 min	–
